Measured values reported in EP3046573B1, “AMYLIN ANALOGUES” (Zealand Pharma A/S, priority 2013, dated 2015).
Numbered stars: 1 amine (or outer) side, 2 acyl side, 3 side chain; on linkers, the order of the positions; unused ones are H or OH. Bridge positions count the residues as written; N and C are the ends. Square brackets hold non-standard residues; d marks the D form. Peptide text beside a SMILES is read from it. * marks the point of attachment. C20 diacid = O=C(O)CCCCCCCCCCCCCCCCCCC(=O)*; γGlu = O=C(O)[C@H](CCC(=O)[*:2])N[*:1]; NMeI = CC[C@H](C)[C@H](NC)C(=O)O; Sar = CNCC(=O)O

Assay: Solubility assessment (turbidity absorbance at 325 nm)
Assay type: physicochemical
Conditions: stock 2 mg/ml diluted 1:1, ambient temperature (typically 25°C), n=1; for Solubility, Acetate buffer pH 4: 100 mM acetate buffer pH 4.0; for Solubility, Acetate buffer pH 5: 100 mM acetate buffer pH 5.0; for Solubility, Histidine buffer pH 6: 100 mM histidine buffer pH 6.0; for Solubility, Histidine buffer pH 7: 100 mM histidine buffer pH 7.0; for Solubility, Phosphate buffer pH 6: 100 mM phosphate buffer pH 6.0; for Solubility, Phosphate buffer pH 7: 100 mM phosphate buffer pH 7.0; for Solubility, Phosphate buffer pH 7.5: 100 mM phosphate buffer pH7.5
Experimental: A stock solution of the test peptide (2 mg/ml; determined from the weighed amount of peptide) in demineralized water adjusted to pH 2.5 with HCI was prepared, and aliquots were diluted 1:1 in 100 mM acetate buffer (pH 4.0 and pH 5.0), 100 mM histidine buffer (pH 6.0 and pH 7.0) and 100 mM phosphate buffer (pH 6.0, pH 7.0 and pH7.5), respectively, and loaded in a standard flat-bottom, non-sterile 96-well UV Microplate. The absorbance of samples (single samples, n=1) at 280 and 325 nm was measured in an absorbance-based plate reader, which was preheated to ambient temperature (typically 25°C). The turbidity absorbance criterion for a peptide solubility of ≥ 1 mg/ml was an absorbance at 325 nm of ≤ 0.02 absorbance units (which is 5 to 6 times the standard deviation of 8 buffer samples in a plate). Solubility data for peptides of the invention, pramlintide, and for a comparison pramlintide derivative denoted NN96 (see Example 5 below for details) are shown in Table 1, below. Table 1. Solubility data for compounds of the invention.

CC[C@H](C)[C@@H](C(=O)N[C@@H](CC(C)C)C(=O)N[C@@H](CO)C(=O)N[C@@H](CO)C(=O)N[C@H](C(=O)N[C@@H](CC(N)=O)C(=O)N[C@H](C(=O)NCC(=O)N[C@@H](CO)C(=O)N[C@@H](CC(N)=O)C(=O)N[C@H](C(=O)N1CCC[C@H]1C(N)=O)[C@@H](C)O)C(C)C)[C@@H](C)O)N(C)C(=O)[C@H](C)NC(=O)CN(C)C(=O)[C@H](Cc1ccccc1)NC(=O)[C@H](CC(N)=O)NC(=O)[C@H](CC(N)=O)NC(=O)[C@H](CO)NC(=O)[C@H](CO)NC(=O)[C@H](Cc1c[nH]cn1)NC(=O)[C@H](Cc1c[nH]cn1)NC(=O)[C@@H](CC(C)C)NC(=O)[C@H](Cc1ccccc1)NC(=O)[C@H](CCC(=O)O)NC(=O)[C@H](C)NC(=O)[C@H](CC(C)C)NC(=O)[C@H](CCCNC(=N)N)NC(=O)[C@H](CCC(N)=O)NC(=O)[C@@H](NC(=O)[C@H](C)NC(=O)[C@@H]1CSSC[C@H](NC(=O)[C@H](CCCNC(=N)N)NC(=O)CC[C@H](NC(=O)CCCCCCCCCCCCCCCCCCC(=O)O)C(=O)O)C(=O)N[C@@H](CC(N)=O)C(=O)N[C@@H]([C@@H](C)O)C(=O)N[C@@H](C)C(=O)N[C@@H]([C@@H](C)O)C(=O)N1)[C@@H](C)O [Compound 10, [19CD]-isoGlu-RC()NTATC()ATQRLAEF-DLeu-HHSSNNF-Gly(Me)-A-Ile(Me)-LSSTNVGSNTP-NH2] ({C20 diacid-γGlu}-RCNTATCATQRLAEF[dL]HHSSNNF[Sar]A[NMeI]LSSTNVGSNTP-NH2; disulfide 2-7)
SS (SS indicates solubility ≥ 1mg/ml): Solubility, Acetate buffer pH 4 | Solubility, Acetate buffer pH 5 | Solubility, Histidine buffer pH 6 | Solubility, Histidine buffer pH 7 | Solubility, Phosphate buffer pH 6 | Solubility, Phosphate buffer pH 7 | Solubility, Phosphate buffer pH 7.5

CC[C@H](C)[C@@H](C(=O)N[C@@H](CC(C)C)C(=O)N[C@@H](CO)C(=O)N[C@@H](CO)C(=O)N[C@H](C(=O)N[C@@H](CC(N)=O)C(=O)N[C@H](C(=O)NCC(=O)N[C@@H](CO)C(=O)N[C@@H](CC(N)=O)C(=O)N[C@H](C(=O)N1CCC[C@H]1C(N)=O)[C@@H](C)O)C(C)C)[C@@H](C)O)N(C)C(=O)[C@H](C)NC(=O)CN(C)C(=O)[C@H](Cc1ccccc1)NC(=O)[C@H](CC(N)=O)NC(=O)[C@@H](CC(N)=O)NC(=O)[C@H](CO)NC(=O)[C@H](CO)NC(=O)[C@H](Cc1c[nH]cn1)NC(=O)[C@H](Cc1c[nH]cn1)NC(=O)[C@H](CC(C)C)NC(=O)[C@H](Cc1ccccc1)NC(=O)[C@H](CCC(=O)O)NC(=O)[C@H](C)NC(=O)[C@H](CC(C)C)NC(=O)[C@H](CCCNC(=N)N)NC(=O)[C@H](CCC(N)=O)NC(=O)[C@@H](NC(=O)[C@H](C)NC(=O)[C@@H]1CSSC[C@H](NC(=O)[C@H](CCCNC(=N)N)NC(=O)CC[C@H](NC(=O)CCCCCCCCCCCCCCCCCCC(=O)O)C(=O)O)C(=O)N[C@@H](CC(N)=O)C(=O)N[C@@H]([C@@H](C)O)C(=O)N[C@@H](C)C(=O)N[C@@H]([C@@H](C)O)C(=O)N1)[C@@H](C)O [Compound 32, [19CD]-isoGlu-RC()NTATC()ATQRLAEFLHHSS-DAsn-NF-Gly(Me)-A-Ile(Me)-LSSTNVGSNTP-NH2] ({C20 diacid-γGlu}-RCNTATCATQRLAEFLHHSS[dN]NF[Sar]A[NMeI]LSSTNVGSNTP-NH2; disulfide 2-7)
SS (SS indicates solubility ≥ 1mg/ml): Solubility, Acetate buffer pH 4 | Solubility, Acetate buffer pH 5 | Solubility, Histidine buffer pH 6 | Solubility, Histidine buffer pH 7 | Solubility, Phosphate buffer pH 6 | Solubility, Phosphate buffer pH 7 | Solubility, Phosphate buffer pH 7.5
